Reference: patent publication US4935415A, “UCN-01 and process for production thereof” (priority 1986, dated 1990)
≈ marks a conversion by molar mass, not a printed value.

Legend:
[1] = LD50 of Staurosporine (note to Table 5); details: in vivo; species and route not printed in the note
[2] = test system: lymphocytic leukemia P388 tumor; assay: Therapeutic effect on lymphocytic leukemia P388 tumor; format: in vivo, male CDF1 mice
Method: Therapeutic effect on lymphocytic leukemia P388 tumor:
Five male CDF1 mice each having a weight of about 22 g were used for each group as test animals, and 1×10^6 cells of lymphocytic leukemia P388 tumor were implanted intraperitoneally in the test animals. 24 hours after implantation, 0.2 ml of a phosphate buffer saline (hereafter referred to as PBS) containing UCN-01 was intraperitoneally administered.
The composition of PBS was 0.8% NaCl, 0.02% KCl, 1.15% Na2 HPO4, […] 0.02% KH2 PO4 (pH 7.0).
For comparison, 0.2 ml of PBS solution containing Staurosporine was intraperitoneally administered 24 hours after the implantation of the tumor cells. Increased life span (T/C) (T: mean survival days of the treated group, C: mean survival days of the control group) is shown in Table 5.

[3] = test system: Klebsiella pneumoniae ATCC 10031; assay: Anti-bacterial activity, agar dilution method (MIC); format: cell-based; details: ATCC10031, pH 7
Method: (§1) The minimum inhibitory concentration (MIC) against various microorganisms is shown below.
(§2) The anti-bacterial activity was measured by the agar dilution method, using a medium (pH 7) prepared by dissolving 3 g of Bacto-Tryptone (manufacturedby Difco Co., Ltd.), 3 g of meat extract, 1 g of yeast extract, 1 g of glucose and 16 g of agar in 1 (of water.

[4] = test system: Bacillus subtilis No. 10707; assay: as above; format: cell-based; details: pH 7
Method: as §1, §2

[5] = test system: Shigella sonnei ATCC 9290; assay: as above; format: cell-based; details: ATCC9290, pH 7
Method: as §1, §2

[6] = test system: Escherichia coli ATCC 26; assay: as above; format: cell-based; details: ATCC26, pH 7
Method: as §1, §2

[7] = test system: Staphylococcus aureus ATCC 6538P; assay: as above; format: cell-based; details: ATCC6538P, pH 7
Method: as §1, §2

[8] = test system: Salmonella typhi ATCC 9992; assay: as above; format: cell-based; details: Salmonella enterica, pH 7
Method: as §1, §2

[9] = Acute toxicity (LD50), intraperitoneal administration to mice; details: mouse, in vivo, ip
Method: The acute toxicity value (LD50) was 30 mg/kg by intraperitoneal administration to mice.

SMILES	LD50 [1] [mg/kg]	Increased Life Span (T/C) ([2]; 1 mg/kg, intraperitoneal, 24 hours after implantation)	Increased Life Span (T/C) ([2]; 2 mg/kg, intraperitoneal, 24 hours after implantation)	Increased Life Span (T/C) ([2]; 4 mg/kg, intraperitoneal, 24 hours after implantation)	Increased Life Span (T/C) ([2]; 7.5 mg/kg, intraperitoneal, 24 hours after implantation)	Increased Life Span (T/C) ([2]; 15 mg/kg, intraperitoneal, 24 hours after implantation)	Increased Life Span (T/C): toxic ([2]; 30 mg/kg, intraperitoneal, 24 hours after implantation)	anti-tumor activity as compared with staurosporine ([2]; comparison with staurosporine, in words)	MIC [3] [µg/mL]	MIC [4] [µg/mL]	MIC [5] [µg/mL]	MIC [6] [µg/mL]	MIC [7] [µg/mL]	MIC [8] [µg/mL]	LD50 [9] [mg/kg]
CN[C@@H]1C[C@H]2O[C@@](C)([C@@H]1OC)n1c3ccccc3c3c4c(c5c6ccccc6n2c5c31)C(=O)NC4 [Staurosporine, reference compound]	6.6	1.10	1.12	1.08											
CNC1CC2OC(C)(C1OC)n1c3ccccc3c3c4c(c5c6ccccc6n2c5c31)C(=O)NC4O (stereo not drawn) [UCN-01]					1.12	1.24	toxic	superior anti-tumor activity	83 (≈ 172 µM)	> 100	100 (≈ 207 µM)	83 (≈ 172 µM)	83 (≈ 172 µM)	83 (≈ 172 µM)	30
